Assay results from patent publication US10842868B2 (priority 2012, dated 2020).

Key:
[1] = system: DT, TT, PT, FHA and 69K; assay type: physicochemical
[2] = assay type: physicochemical; conditions: K2 10, 50, 250 or 500 μg/ml; Al—H 3 mg/ml; all strengths
Experimental: Compound K2 is added to water at 4mg/ml, then 1M NaOH is added to ensure full solubilisation, with stirring for 15 minutes at room temperature. This material is added to a suspension of aluminium hydroxide adjuvant (Al—H) to give the desired final concentration. This mixture is shaken for 2 hours at ambient temperature to ensure full adsorption, and then histidine buffer components are added (10mM histidine buffer, pH 6.5).
Four different mixtures are prepared, giving a final K2 concentration of 10, 50, 250 or 500 μg/ml (to provide a 1, 5, 25 or 50 μg dose of K2 in a 100 μl dosage volume); the Al—H concentration is always 3 mg/ml. At all strengths >95% of compound K2 is adsorbed to the Al—H. The adsorbed adjuvant is referred to hereafter as “Al—H/K2”.

## Cc1cc(OCCOCCOCCP(=O)(O)O)ccc1CCc1cnc2c(N)nc3cc(CCC(=O)O)ccc3c2c1 [K2, 3-(5-amino-2-(2-methyl-4-(2-(2-(2-phosphonoethoxy)ethoxy)ethoxy)phenethyl)benzo [f]-[1,7]naphthyridin-8-yl)propanoic acid]
[1]
  adsorption of all antigens: completely adsorbed
[2]
  compound K2 adsorbed to the Al—H: > 95%
